Source: US20080146651A1, “Injectable Composition for the Treatment of Cancers” (priority 2004, published 2008)

Assay: Stability test of paclitaxel according to varying pH values (HPLC residual percentage)
Assay type: physicochemical
Conditions: for Initial residual percentage (0 hour) / Residual percentage after 24 hours / Residual percentage after 48 hours: 40° C.
Description: Paclitaxel was completely dissolved using glycofurol and Solutol HS15, and was then diluted in a McIlvaine buffer at pH 3˜8. The dilution was allowed to stand at 40° C. After 24 and 48 hours, the residual percentages of paclitaxel were measured by HPLC.

Q: Which residual percentage (around pH 5, for 48 hours) does the source give for `CC(=O)O[C@H]1C(=O)[C@@]2(C)[C@H]([C@H](OC(=O)c3ccccc3)[C@]3(O)C[C@H](OC(=O)[C@H](O)[C@@H](NC(=O)c4ccccc4)c4ccccc4)C(C)=C1C3(C)C)[C@]1(OC(C)=O)CO[C@@H]1C[C@@H]2O` [paclitaxel] here?
A: ≥ 99%

Q: What about the “Initial residual percentage (0 hour)” value (pH 3, McIlvaine buffer) of the same compound?
A: 100%

Q: What about the “Residual percentage after 24 hours” value (pH 3, McIlvaine buffer) of the same compound?
A: 99.239%

Q: What about the “Residual percentage after 48 hours” value (pH 3, McIlvaine buffer) of the same compound?
A: 97.509%

Q: What about the “Initial residual percentage (0 hour)” value (pH 4, McIlvaine buffer) of the same compound?
A: 100%

Q: What about the “Residual percentage after 24 hours” value (pH 4, McIlvaine buffer) of the same compound?
A: 99.025%

Q: What about the “Residual percentage after 48 hours” value (pH 4, McIlvaine buffer) of the same compound?
A: 98.221%

Q: And the “stability of paclitaxel with the passage of time” value (pH 4˜6)?
A: stable

Q: And the residual percentage (pH 4˜6, for 48 hours)?
A: ≥ 98%

Q: What about the “Initial residual percentage (0 hour)” value (pH 5, McIlvaine buffer) of the same compound?
A: 100%

Q: And the “Residual percentage after 24 hours” value (pH 5, McIlvaine buffer)?
A: 99.414%

Q: And the “Residual percentage after 48 hours” value (pH 5, McIlvaine buffer)?
A: 99.292%

Q: What about the “Initial residual percentage (0 hour)” value (pH 6, McIlvaine buffer) of the same compound?
A: 100%

Q: And the “Residual percentage after 24 hours” value (pH 6, McIlvaine buffer)?
A: 98.765%

Q: And the “Residual percentage after 48 hours” value (pH 6, McIlvaine buffer)?
A: 98.183%

Q: What about the “Initial residual percentage (0 hour)” value (pH 7, McIlvaine buffer) of the same compound?
A: 100%

Q: What about the “Residual percentage after 24 hours” value (pH 7, McIlvaine buffer) of the same compound?
A: 96.109%

Q: And the “Residual percentage after 48 hours” value (pH 7, McIlvaine buffer)?
A: 94.344%

Q: What about the “Initial residual percentage (0 hour)” value (pH 8, McIlvaine buffer) of the same compound?
A: 100%

Q: What about the “Residual percentage after 24 hours” value (pH 8, McIlvaine buffer) of the same compound?
A: 77.297%

Q: And the “Residual percentage after 48 hours” value (pH 8, McIlvaine buffer)?
A: 57.38%
